According to article PMC3912631, “Bench to Bed Evidences for Pharmacokinetic and Pharmacodynamic Interactions Involving Oseltamivir and Chinese Medicine” (Evidence-based Complementary and Alternative Medicine : eCAM, 2014):
Where two headings read alike, the source gives them in different places.

Legend:
[1] = Rat pharmacokinetics of OA and OC in plasma and urine after oral OA alone or with CMF1; assay type: in vivo, Sprague-Dawley rats; conditions: for Tmax / Cmax / CL renal / half-life: male, Sprague-Dawley, in vivo, po, 30 mg/kg; for Tmax / Cmax / CL renal / half-life / AUC0–8 h / AUC0–inf / Renal recovery: oral, bid for 5 days; for Tmax: mean ± SD, read-out: T max (converted); for Cmax: read-out: C max; for CL renal: read-out: CL renal; for half-life: read-out: t 1/2, λz; for Renal recovery: urine over 8 h
Experimental: The study was approved by the Animal Ethics Committee of The Chinese University of Hong Kong. Male Sprague-Dawley rats (230–250 g) were utilized and supplied by the Laboratory Animal Service Center at The Chinese University of Hong Kong. The rats were housed under standard conditions of temperature, humidity, and light and randomly divided into six groups with 10–12 rats in each group. […] The dose of 1.95 g/kg CMF1 is calculated based on the human dose recommended by the Chinese physicians and a doubled dose of CMF1 at […] is also used in the current study due to the potential large dosing range for Chinese medicine adopted in the practice. […]
For dosing, OA (4 mg/mL) was freshly prepared by dissolving it in water and orally given to rats by gavage, bid (twice daily) for 4 days (9:00am and 6:00pm for each day), and CMF1 was also freshly suspended in water and then orally given to rats 2 h later of OA dosing (11:00 am and 8:00 pm for each day).
For Groups of 1 to 3, a surgery for jugular vein cannulation was performed 1 h after CMF1 second dosing on day 4. A polyethylene catheter (0.50 mm ID, 1.00 mm OD, Portex Limited, Hythe, Kent, England) was cannulated into the right jugular vein under anesthesia. After surgery, the rat was placed in separated metabolic cage and allowed to recover and fasted overnight with free access to water. In the morning of day 5, blood samples (0.2 mL each) of the rats in the Groups 1–3 were collected via the catheter at 0, 15, 30, 60, 90, 120, 180, 240, 360, and 480 min after dosing of OA. After which, 0.2 mL of normal saline containing 20 units/mL of heparin was then injected into the catheter to flush the catheter. The collected blood samples were immediately placed in heparinized tubes containing dichlorvos (5 μL of 8 mg/mL dichlorvos in normal saline) for inhibition of carboxylesterase, followed by centrifugation to obtain the plasma and stored at −80°C. Urine samples were collected over 8 h postdose and combined with water used for rinsing the metabolic cage, further diluted to 200 mL, and then stored at −80°C until assay.
The rat/human plasma and urine samples were treated and analyzed by an LC/MS/MS system as previously described. Briefly, 200 μL plasma/urine samples was mixed with cephalexin hydrate (internal standard, IS) working solution (final 2 μg/mL) and acidified with 1 mL of 10% perchloric acid in water (if necessary, dilution with blank human urine was required for urine samples). After mixing and centrifugation, the supernatant was loaded in prewashed Oasis MCX cartridge (1 cc, 30 mg, Waters) and the cartridge was rinsed subsequently with 1% formic acid, water, and methanol followed by vacuum dried for 20 min. The analytes were then eluted with 1 mL of 1% ammonia in methanol. The eluting solvent was dried by a vacuum concentrator and the residue was reconstituted with 200 μL of 0.1% formic acid : methanol (1 : 1 v/v) prior to HPLC/MS/MS analysis using an ABI 2000 Q-Trap triple quadrupole mass spectrometer (Applied Biosystems) coupled with PE-200 series micropumps and autosampler (Perkin-Elmer). The chromatographic separation was achieved by using a Nova-Pak CN HP column (75 × 3.9 mm i.d., 4 μm particle size, Waters) and the HPLC solvent system consisted of methanol (A) and 0.1% formic acid in water (B), with 50% A (for plasma samples) or 60% A (for urine samples) at 1 mL/min. The temperatures of autosampler and the analytical column were set at 4°C and ambient, respectively, and the sample injection volume was 20 μL. Prior to the mass spectrometric system, 60% of the LC eluent was split off and only 40% of the eluent was introduced into the ESI source.
The plasma/urine OA and OC concentrations versus time profiles were analyzed using WinNonlin software standard edition version 2.1 (Pharsight Corporation). […] In human study, trough concentration (C trough) was defined as the minimum concentration obtained and was obtained at 12 h post-dose. […]

[2] = system: influenza virus strains; design: method as in PMID 20215135; conditions: read-out: inhibitory concentrations (IC50) against influenza virus strains; cited from earlier work
[3] = cited from earlier work
[4] = Group 2: OA 30 mg/kg + CMF1 at 1.95 mg/kg
[5] = Group 3: OA 30 mg/kg + CMF1 at 3.90 mg/kg

CCC(CC)O[C@@H]1C=C(C(=O)O)C[C@H](N)[C@H]1NC(C)=O [OC, oseltamivir carboxylate]
decrease of C max, urinary recovery and AUC of OC and OC/OA AUC ratio in OA + CMF1 groups vs OA alone ([1]; dose-dependent): 26%-27%
Tmax ([1]; Group 1: OA alone 30 mg/kg): 1.75 h
Cmax ([1]; Group 1: OA alone 30 mg/kg): 1650 ± 400 ng/mL
CL renal ([1]; Group 1: OA alone 30 mg/kg): 6.33 ± 1.27 mL/min
half-life ([1]; Group 1: OA alone 30 mg/kg): 152 ± 25.1 min
Tmax [1, 4]: 1.77 h
Cmax [1, 4]: 1360 ± 280 ng/mL
CL renal [1, 4]: 6.27 ± 1.76 mL/min
half-life [1, 4]: 146 ± 19.1 min
Tmax [1, 5]: 2 h
Cmax [1, 5]: 1190 ± 230 ng/mL
CL renal [1, 5]: 6.34 ± 0.69 mL/min
half-life [1, 5]: 157 ± 16.8 min
AUC0–8 h ([1]; Group 1: OA alone 30 mg/kg): 418.81 ± 90.86 μg∗min/mL
AUC0–inf ([1]; Group 1: OA alone 30 mg/kg): 485.45 ± 113.03 μg∗min/mL
AUC0–8 h [1, 4]: 344.13 ± 91.46 μg∗min/mL
AUC0–inf [1, 4]: 395.67 ± 109.41 μg∗min/mL
AUC0–8 h [1, 5]: 304.84 ± 40.32 μg∗min/mL
AUC0–inf [1, 5]: 359.21 ± 41.30 μg∗min/mL
Renal recovery ([1]; Group 1: OA alone 30 mg/kg): 35.26 ± 5.40 % of dose
Renal recovery [1, 4]: 29.73 ± 7.33 % of dose
Renal recovery [1, 5]: 25.94 ± 3.09 % of dose
IC50 [2]: 0.01 to 69.2 nM
effect of food on bioavailability [3]: no significant effect
maximum plasma oseltamivir carboxylate concentration ([3]; following 50 mg doses): about 230 μg/L
absolute oral bioavailability of OC from orally administered OA ([3]; oral OA): 80%
half-life ([3]; oral OA): 6 to 10 h
